Assay results taken from patent US6433165B1, “Chemokine receptor antagonists and methods of use therefor” (Millennium Pharmaceuticals, Inc., priority 1998, dated 2002).
Read-outs that look alike come from different tables or passages of the source.

Biological target: T1, RANTES / MIP-1α binding to THP-1 cell membranes (Homo sapiens, UniProt P32246)
T1 sequence (P32246 1-355): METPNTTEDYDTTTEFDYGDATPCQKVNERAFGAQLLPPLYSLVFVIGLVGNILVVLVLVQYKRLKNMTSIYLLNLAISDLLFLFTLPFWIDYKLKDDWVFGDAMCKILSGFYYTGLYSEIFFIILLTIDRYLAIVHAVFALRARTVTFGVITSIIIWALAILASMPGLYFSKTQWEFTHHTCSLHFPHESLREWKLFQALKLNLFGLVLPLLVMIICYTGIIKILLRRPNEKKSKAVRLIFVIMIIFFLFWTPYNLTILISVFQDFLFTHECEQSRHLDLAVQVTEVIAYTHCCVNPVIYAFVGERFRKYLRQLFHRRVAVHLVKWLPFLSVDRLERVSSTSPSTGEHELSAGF
Experiment: Receptor binding assay, 125I-RANTES or 125I-MIP-1α binding to THP-1 cell membranes
Experimental: Membranes were prepared from THP-1 cells (ATCC #TIB202). Cells were harvested by centrifugation, washed twice with PBS (phosphate-buffered saline), and the cell pellets were frozen at −70 to −85° C. […] This procedure results in cell lysis. The suspension was mixed well to resuspend all of the frozen cell pellet. Nuclei and cell debris were removed by centrifugation of 400×g for 10 minutes at 4° C. The supernatant was transferred to a fresh tube and the membrane fragments were collected by centrifugation at 25,000×g for 30 minutes at 4° C. The supernatant was aspirated and the pellet was resuspended in freezing buffer consisting of 10 mM HEPES pH 7.5, 300 mM sucrose, 1 μg/ml each aprotinin, leupeptin, and chymostatin, and 10 μg/ml PMSF (approximately 0.1 ml per each 10^8 cells). All clumps were resolved using a minihomogenizer, and the total protein concentration was determined using a protein assay kit (Bio-Rad, Hercules, Calif., cat #500-0002). The membrane solution was then aliquoted and frozen at −70 to −85° C. until needed. Binding Assays utilized the membranes described above. […] The binding reactions were terminated by harvesting the membranes by rapid filtration through glass fiber filters (GF/B or GF/C, Packard) which were presoaked in 0.3% polyethyleneimine. The filters were rinsed with approximately 600 μl of binding buffer containing 0.5 M NaCl, dried, and the amount of bound radioactivity was determined by scintillation counting in a Topcount beta-plate counter.

[1] = 125I-RANTES or 125I-MIP-1α as ligand, THP-1 cell membranes, 60 min at room temperature, read-out: IC50 (inhibitor concentration required for 50% inhibition of specific binding)

| SMILES | IC50 [1] [nM] | other results |
| --- | --- | --- |
| N#CC1(CCCN2CCC(O)(c3ccc(Cl)cc3)CC2)c2ccccc2C[S+]([O-])c2ccccc21 (single isomer, unassigned) [Example 14, 4-(4-Chlorophenyl)-1-[3-(11-cyano-6,11-dihydro-5-oxodibenzo[b,e]thiepin-11-yl)propyl]piperidin-4-ol] |  | IC50: < 1000 nM |
| N#CC1(CCCN2CCC(O)(c3ccc(Cl)cc3)CC2)c2ccccc2C[S+]([O-])c2ccccc21 (single isomer, unassigned) [Example 15, 4-(4-Chlorophenyl)-1-[3-(11-cyano-6,11-dihydro-5-oxodibenzo[b,e]thiepin-11-yl)propyl]piperidin-4-ol] |  | IC50 (read-out: IC50 (inhibitor concentration required for 50% inhibition of specific binding), 125I-RANTES or 125I-MIP-1α as ligand, THP-1 cell membranes, 60 min at room temperature): < 1000 nM |
| N#CC1(CCCN2CCC(O)(c3ccc(Cl)cc3)CC2)c2ccccc2C=Cc2ccccc21 [Example 1, 4-(4-Chlorophenyl)1-[3-(5-cyano-5H-dibenzo[a,d]cycloheptene-5-yl)propyl]piperidin-4-ol] | < 1000 |  |
| N#CC1(CCCN2CCC(O)(c3ccc(Cl)cc3)CC2)c2ccccc2CCc2ccccc21 [Example 2, 4-(4-Chlorophenyl)-1-[3-(5-cyano-10,11-dihydro-5H-dibenzo[a,d]cycloheptene-5-yl)propyl]piperidin-4-ol] |  | IC50: < 1000 nM |
| N#CC1(CCCN2CCC(O)(c3ccc(Cl)cc3)CC2)c2ccccc2COc2ccccc21 (centres unmarked) [Example 3, 4-(4-Chlorophenyl)-1-[3-(11-cyano-6,11-dihydrodibenz[b,e]oxepin-11-yl)propyl]piperidin-4-ol] | < 1000 |  |
| N#CC1(CCCN2CCC(O)(c3ccc(F)cc3)CC2)c2ccccc2COc2ccccc21 (centres unmarked) [Example 4, 1-[3-(11-Cyano-6,11-dihydrodibenz[b,e]oxepin-11-yl)propyl]-4-(4-fluorophenyl)piperidin-4-ol] | < 1000 |  |
| N#CC1(CCCN2CCC(O)(c3ccc(Cl)cc3)CC2)c2ccccc2COc2ccc(F)cc21 (centres unmarked) [Example 5, 4-(4-Chlorophenyl)-1-[3-(11-cyano-6,11-dihydro-2-fluorodibenz[b,e]oxepin-11-yl)propyl]piperidin-4-ol] | < 1000 |  |
| N#CC1(CCCN2CCC(O)(c3ccc(Cl)cc3)CC2)c2ccccc2COc2ccc(Br)cc21 (centres unmarked) [Example 6, 1-[3-(2-Bromo-11-cyano-6,11-dihydrodibenz[b,e]oxepin-11-yl)propyl]-4-(4-chlorophenyl)piperidin-4-ol] | < 1000 |  |
| Cc1ccc2c(c1)C(C#N)(CCCN1CCC(O)(c3ccc(Cl)cc3)CC1)c1ccccc1CO2 (centres unmarked) [Example 7, 4-(4-Chlorophenyl)-1-[3-(11-cyano-6,11-dihydro-2-methyldibenz[b,e]oxepin-11-yl)propyl]piperidin-4-ol] | < 1000 |  |
| N#CC1(CCCN2CCC(O)(c3ccc(Cl)cc3)CC2)c2ccccc2CSc2ccccc21 (centres unmarked) [Example 10, 4-(4-Chlorophenyl)-1-[3-(11-cyano-6,11-dihydrodibenzo[b,e]thiepin-11-yl)propyl]piperidin-4-ol] |  | IC50: < 1000 nM |
| N#CC1(CCCN2CCC(O)(c3ccccc3)CC2)c2ccccc2CSc2ccccc21 (centres unmarked) [Example 11, 1-[3-(11-Cyano-6,11-dihydrodibenzo[b,e]thiepin-11-yl)propyl]-4-phenylpiperidin-4-ol] | < 100000 |  |
| N#CC1(CCCN2CCC(O)(c3ccc(Br)cc3)CC2)c2ccccc2CSc2ccccc21 (centres unmarked) [Example 12, 4-(4-Bromophenyl)-1-[3-(11-cyano-6,11-dihydrodibenzo[b,e]thiepin-11-yl)propyl]piperidin-4-ol] | < 1000 |  |
| N#CC1(CCCN2CCC(O)(c3ccc(Cl)cc3)CC2)c2ccccc2CSc2ccc(Br)cc21 (centres unmarked) [Example 13, 1-[3-(2-Bromo-11-cyano-6,11-dihydrodibenzo[b,e]thiepin-11-yl)propyl]-4-(4-chlorophenyl)piperidin-4-ol] | < 1000 |  |
| N#CC1(CCCN2CCC(O)(c3ccc(Cl)cc3)CC2)c2ccccc2CS(=O)(=O)c2ccccc21 (centres unmarked) [Example 16, 4-(4-Chlorophenyl)-1-[3-(11-cyano-6,11-dihydro-5,5-dioxodibenzo[b,e]thiepin-11-yl)propyl]piperidin-4-ol] | < 1000 |  |
| OC1(c2ccc(Cl)cc2)CCN(CCCC2c3ccccc3CSc3ccccc32)CC1 (centres unmarked) [Example 17, 4-(4-Chlorophenyl)-1-[3-(6,11-dihydrodibenzo[b,e]thiepin-11-yl)propyl]piperidin-4-ol] | < 1000 |  |
| OC1(c2ccc(Cl)cc2)CCN(CCCC2c3ccccc3CCc3ccccc32)CC1 [Example 18, 4-(4-Chlorophenyl)-1-[3-(10,11-dihydro-5H-dibenzo[a,d]cycloheptene-5-yl)propyl]piperidin-4-ol] | < 1000 |  |
| OC1(c2ccc(Cl)cc2)CCN(CCCC2c3ccccc3COc3ccccc32)CC1 (centres unmarked) [Example 19, 4-(4-Chlorophenyl)-1-[3-(6,11-dihydrodibenz[b,e]oxepin-11-yl)propyl]piperidin-4-ol] | < 1000 |  |
| O=C(NCC1(CCCN2CCC(O)(c3ccc(Cl)cc3)CC2)c2ccccc2CSc2ccccc21)Oc1ccccc1 (centres unmarked) [Example 22, Phenyl N-[11-[3-(4-(4-chlorophenyl)-4-hydroxypiperidino)propyl]-6,11-dihydrodibenzo[b,e]thiepin-11-yl)methyl Carbamate] |  | IC50: < 1000 nM |
| O=C(NCCCO)NCC1(CCCN2CCC(O)(c3ccc(Cl)cc3)CC2)c2ccccc2CSc2ccccc21 (centres unmarked) [Example 23, 1-[11-[3-(4-(4-chlorophenyl)-4-hydroxypiperidino)propyl]-6,11-dihydrodibenzo[b,e]thiepin-11-yl]methyl-8-(3-hydroxypropyl)urea] | < 10000 |  |
| O=C(CCN1CCC(O)(c2ccc(Cl)cc2)CC1)C1c2ccccc2CCc2ccccc21 [Example 24, 4-(4-Chlorophenyl)-1-[3-(10,11-dihydro-5H-dibenzo[a,d]cycloheptene-5-yl)-3-propioyl]piperidin-4-ol] |  | IC50: < 1000 nM |
